Experimental data published in paper PMC4648050, “Discovery of Inhibitors of Trypanosoma brucei by Phenotypic Screening of a Focused Protein Kinase Library” (Chemmedchem, 2015).
≈ marks a conversion by molar mass, not a printed value. Where two headings read alike, the source gives them in different places.

Tests used:
[1] = Kinetic aqueous solubility (laser nephelometry); assay type: physicochemical; conditions: Milli-Q water with 2.5% DMSO, kinetic from dmso stock, range 250–12 μM, read-out: Aq. Sol. (aqueous kinetic solubility)
Method: Solubility experiments: The kinetic aqueous solubility of the test compounds was measured using laser nephelometry. Compounds were subject to serial dilution from 10 mM to 0.5 mM in DMSO. An aliquot was then mixed with Milli-Q H2O to obtain an aqueous dilution plate with a final concentration range of 250–12 μM, with a final DMSO concentration of 2.5 %. Triplicate aliquots were transferred to a flat-bottomed polystyrene plate which was immediately read on the NEPHELOstar (BMG Lab Technologies). The amount of laser scatter caused by insoluble particulates (relative nephelometry units, RNU) was plotted against compound concentration using a segmental regression fit, with the point of inflection being quoted as the compounds′ aqueous solubility (in μM).

[2] = Intrinsic clearance in mouse liver microsomes; assay type: in vitro ADME; conditions: mouse hepatic microsomes, 0.5 μM compound
Method: Intrinsic clearance experiments: Test compound (0.5 μM) was incubated with female CD1 mouse liver microsomes (Xenotech LLC; 0.5 mg mL^−1 50 mM potassium phosphate buffer, pH 7.4), and the reaction started with the addition of excess NADPH (8 mg mL^−1 50 mM potassium phosphate buffer, pH 7.4). Immediately, at t0, then at 3, 6, 9, 15, and 30 min an aliquot (50 μL) of the incubation mixture was removed and mixed with MeCN (100 μL) to stop the reaction. Internal standard was added to all samples, the samples were centrifuged to sediment precipitated protein, and the plates were then sealed prior to UPLC–MS/MS analysis using a Quattro Premier XE instrument (Waters Corp., USA). XLfit (IDBS, UK) was used to calculate the exponential decay and consequently the rate constant (k) from the ratio of peak area of test compound to internal standard at each time point. The rate of intrinsic clearance [CLint, mL min^−1 (g liver)^−1] of each test compound was then calculated with Equation (3): […]
in which V [mL (mg protein)^−1] is the incubation volume per mg protein added, and microsomal protein yield is taken as 52.5 mg protein per gram of liver. Verapamil (0.5 μM) was used as a positive control to confirm acceptable assay performance.

[3] = Plasma protein binding (equilibrium dialysis); assay type: in vitro ADME; conditions: mouse plasma
Method: Plasma protein binding experiments: In brief, a 96-well equilibrium dialysis apparatus was used to determine the free fraction in plasma for each compound (HT Dialysis LLC, Gales Ferry, CT, USA). Membranes (12-14 kDa cutoff) were conditioned in deionised H2O for 60 min, followed by conditioning in 80:20 deionised H2O/EtOH for 20 min, and then rinsed in isotonic buffer before use. Female CD1 mouse plasma was removed from the freezer and allowed to thaw on the day of experiment. Thawed plasma was then centrifuged (Allegra […], Beckman Coulter, USA), spiked with test compound (10 μg g^-1), and 150 μL aliquots (n=6 replicate determinations) loaded into the 96-well equilibrium dialysis plate. Dialysis against isotonic buffer (150 μL) was carried out for 5 h in a temperature-controlled incubator at ∼37 °C (Barworld Scientific Ltd., UK) using an orbital microplate shaker at 125 rpm (Barworld Scientific). At the end of the incubation period, aliquots of plasma or buffer were transferred to micronic tubes (Micronic B.V., the Netherlands), and the composition in each tube was balanced with control fluid such that the volume of buffer to plasma is the same. Sample extraction was performed by the addition of 400 μL MeCN containing an appropriate internal standard. Samples were allowed to mix for 1 min and then centrifuged at 3000 rpm in 96-well blocks for 15 min (Allegra […], Beckman Coulter, USA). All samples were analysed by UPLC-MS/MS on a Quattro Premier XE Mass Spectrometer (Waters Corp.). The unbound fraction was determined as the ratio of the peak area in buffer to that in plasma.

[4] = In vivo pharmacokinetics in mice; set-up: species or system female NMRI mice; conditions: mouse, whole blood, ip, blood; for Tmax: female, NMRI; for AUC(0-t): read-out: AUC(0–8) (converted)
Method: In vivo pharmacokinetics in mice: Compounds 1 and 28 were dosed orally by gavage as a solution at 5 mg free base per kg or 20 mg free base per kg, respectively (dose volume: 5 or 10 mL kg^−1, dose vehicle: 5 % DMSO, 40 % PEG400, 55 % distilled H2O) to female NMRI mice (n=3). Compounds 28, 38, and 56 were dosed as a bolus solution intraperitoneally at 10 (56) or 20 (28 and 38) mg free base per kg (dose volume: 10 mL kg^−1, dose vehicle: 5 % DMSO, 40 % PEG400, 55 % sterile H2O) to female NMRI mice (n=3). Female NMRI mice were chosen, as these represent the sex and strain used for the stage-1 and stage-2 HAT efficacy models. Blood samples were taken from each mouse at 5 (i.p. only), 15 and 30 min, 1, 2, 4, 6 and 8 h post-dose and mixed with two volumes of distilled H2O. After suitable sample preparation, the concentration of each compound in blood was determined by UPLC–MS/MS using a Quattro Premier XE (Waters, USA). Pharmacokinetic parameters were derived from the mean blood concentration time curve using PKsolutions software ver. 2.0 (Summit Research Services, USA).

T. b. brucei = assay: Trypanosome proliferation assay; assay type: cell-based, Trypanosoma brucei brucei; conditions: geometric mean of two or more determinations, standard cell viability (resazurin) assay, read-out: EC50 T. b. brucei
Method: (§1) Trypanosome and MRC5 proliferation assay: Measurement of inhibition of the proliferation of MRC5 cells (human lung fibroblasts) and T. brucei bloodstream-stage cells was performed using a modification of a cell viability assay previously described.[35, 36] Compounds ([…] to 0.5 nM) were incubated with 2×10^3 cells per well in 0.2 mL of the appropriate culture medium (MEM with 10 % foetal bovine serum for MRC5 cells) in clear 96-well plates. Plates were incubated at 37 °C in the presence of 5 % CO2 for 69 h. Resazurin was then added to a final concentration of 50 μM, and plates were incubated as above for a further 4 h before being read on a BioTek Flx800 fluorescence plate reader.

[5] = tested on: MRC5 cells (human lung fibroblasts); assay: MRC5 proliferation assay; assay type: cell-based; conditions: geometric mean of two or more determinations
Method: as §1

[6] = tested on: T. brucei bloodstream-stage cells; assay: Static–cidal (SC) assay; assay type: cell-based, Trypanosoma brucei brucei; conditions: for EC50: 48 h
Method: Determination of cidality against T. brucei bloodstream-stage cells was performed using a static–cidal (SC) assay as previously reported.[26] Briefly, bloodstream-form trypanosomes were seeded into 384-well plates at 4×10^5 mL^−1 (50 μL per well), followed by immediate addition of resazurin (50 μM final) to one of the plates, and all plates were incubated at 37 °C, 5 % CO2. After 4 h the t0 plate was read using a PerkinElmer Victor 3 plate reader (λex=528 nm, λem=590 nm). The second plate was processed in the same manner 20 h later, and at 44 h the last plate was processed. The minimum cidal concentration (MCC) is defined as the lowest concentration of drug that results in a decrease of resorufin signal over time. For dose–response curves from this assay either a monophasic or a biphasic equation was used, depending on which one provided the best fit. For monophasic fits, the following four-parametric equation [Eq. (1)] was used:
in which A=percent inhibition at bottom, B=percent inhibition at top, C=EC50, D=slope, x=inhibitor concentration, and y=percent inhibition. Equation (2) was used for biphasic fits:
for which A=percent inhibition at mid-plateau, B=slope, C=log[SC EC50(1)], D=log[SC EC50(2)]. Thus SC EC50(1) is the EC50 for the first phase of the curve, and SC EC50(2) is that for the second phase. Inhibition at the bottom of the curve is fixed at 0 % and at the top, 100 %.

Row | solubility kinetic [1] [µM] | CLint [2] [mL/min/g] | protein binding (unbound) [3] [% unbound] | Tmax ([4]; 20 mg/kg, 20 mg kg^−1, female NMRI mice) [h] | Cmax ([4]; 20 mg kg^−1, female NMRI mice) [µg/mL] | half-life ([4]; 20 mg kg^−1, female NMRI mice) [h] | AUC(0-t) ([4]; 20 mg kg^−1, female NMRI mice) [µg·h/mL] | fraction unbound at 5 h, 10 μg g^−1 ([3]; female, CD1, equilibrium dialysis, read-out: PPB) | Tmax ([4]; 10 mg/kg, 10 mg kg^−1, female NMRI mice) [h] | Cmax ([4]; 10 mg kg^−1, female NMRI mice) [µg/mL] | half-life ([4]; 10 mg kg^−1, female NMRI mice) [h] | AUC(0-t) ([4]; 10 mg kg^−1, female NMRI mice) [µg·h/mL] | EC50 ([6]; Trypanosoma brucei, static cidal EC50, first site/phase, read-out: SC EC50(1)) [µM] | EC50 ([6]; Trypanosoma brucei, static cidal EC50, second site/phase, read-out: SC EC50(2)) [µM] | Structure (SMILES) | EC50 (T. b. brucei; Trypanosoma brucei) [µM] | EC50 [5] [µM] | MCC ([6]; Trypanosoma brucei, static–cidal assay in triplicate, read-out: MCC (minimal cidal concentration)) [µM] | mode of antiparasitic effect (in words) ([6]; text and figure legend, at concentrations tested) | EC50 (T. b. brucei) [µM]
1 | 55 (≈ 16.3 µg/mL) | 1.6 | 15 | 2 | 0.083 | 2.2 | 0.367 |  |  |  |  |  |  |  | O=c1[nH]c2ncc(-c3ccccc3)nc2n1C1CCOCC1 [Compound 38] | 0.1 | > 50 |  |  | 
2 | > 250 | 3.6 |  |  |  |  |  | 0.11 | 0.25 | 0.58 | 0.7 | 0.883 | 0.07 | > 50 | O=c1[nH]c2ncc(N3CCCCC3)cc2n1C1CCCCC1 [Compound 56] | 0.093 | > 50 | > 50 | growth-slowing or static behaviour | 0.09
